From patent publication US11530217B1, “Antitubercular compounds” (priority 2022, dated 2022)
Values after ≈ are worked out from the molar mass of the structure shown.

Tested on: rifampicin and isoniazid-resistant MTB strain (MDR-MTB)
Test: microbe, parasite or virus in culture
Format: cell-based
Conditions: Mycobacterium tuberculosis, 192 h, read-out: MIC (μg/mL) MDR-MTB

Structure (SMILES) | MIC
COC(=O)c1c(C(=O)OC)c2c(C)cc(C)cn2c1C(=O)c1ccc(OC)cc1 [Compound 5b, Dimethyl 3-(4-methoxybenzoyl)-6,8-dimethylindolizine-1,2-dicarboxylate] | 64 µg/mL (≈ 162 µM)
CCOC(=O)c1cc(C(=O)c2ccc(Cl)cc2)n2cc(C)cc(C)c12 [Compound 5c, Ethyl 3-(4-chlorobenzoyl)-6,8-dimethylindolizine-1-carboxylate] | 1 µg/mL (≈ 2.81 µM)
COC(=O)c1c(C(=O)OC)c2c(C)cc(C)cn2c1C(=O)c1ccc(Cl)cc1 [Compound 5d, Dimethyl 3-(4-chlorobenzoyl)-6,8-dimethylindolizine-1,2-dicarboxylate] | 64 µg/mL (≈ 160 µM)
CCOC(=O)c1cc(C(=O)c2ccc(F)cc2)n2cc(C)cc(C)c12 [Compound 5g, Ethyl 3-(4-fluorobenzoyl)-6,8-dimethylindolizine-1-carboxylate] | 4 µg/mL (≈ 11.8 µM)
CCOC(=O)c1cc(C(=O)c2ccccc2[N+](=O)[O-])n2cc(C)cc(C)c12 [Compound 5h, Ethyl 6,8-dimethyl-3-(2-nitrobenzoyl)indolizine-1-carboxylate] | 4 µg/mL (≈ 10.9 µM)
CCOC(=O)c1cc(C(=O)c2cc(C(F)(F)F)cc(C(F)(F)F)c2)n2cc(C)cc(C)c12 [Compound 5i, Ethyl 3-(3,5-bis(trifluoromethyl)benzoyl)-6,8-dimethylindolizine-1-carboxylate] | 16 µg/mL (≈ 35 µM)
CCOC(=O)c1cc(C(=O)c2ccc(C#N)cc2)n2cc(C)cc(C)c12 [Compound 5j, Ethyl 3-(4-cyanobenzoyl)-6,8-dimethylindolizine-1-carboxylate] | 4 µg/mL (≈ 11.5 µM)
CCOC(=O)c1cc(C(=O)c2ccc(C)cc2)n2cc(C)cc(C)c12 [Compound 5k, Ethyl 6,8-dimethyl-3-(4-methylbenzoyl)indolizine-1-carboxylate] | 4 µg/mL (≈ 11.9 µM)
COC(=O)c1c(C(=O)OC)c2c(C)cc(C)cn2c1C(=O)c1ccc(C#N)cc1 [Compound 5l, Dimethyl 3-(4-cyanobenzoyl)-6,8-dimethylindolizine-1,2-dicarboxylate] | 8 µg/mL (≈ 20.5 µM)
COC(=O)c1c(C(=O)OC)c2c(C)cc(C)cn2c1C(=O)c1ccc(C)cc1 [Compound 5m, Dimethyl 6,8-dimethyl-3-(4-methylbenzoyl)indolizine-1,2-dicarboxylate] | 1 µg/mL (≈ 2.64 µM)
